Laboratory results: ChEMBL document CHEMBL1201862, “PubChem BioAssay data set” (2004)
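Assay format: 96-well plates, 48-hour exposure. At the GI50, growth is halved.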 Activity calls are given as the source filed them. No stated cut-off is given here; in the data, active = GI50 up to about 1.1 µM and inactive = higher.

How the values were obtained:
Assay in all cases: inhibition of tumour cell growth, NCI panel, 48 h
[1] = tested on: HL-60
[2] = tested on: MDA-MB-435
[3] = tested on: OVCAR-8
[4] = tested on: DU-145
[5] = tested on: KM12
[6] = tested on: A498
[7] = tested on: HCC 2998
[8] = tested on: OVCAR-4
[9] = tested on: NCI/ADR-RES
[10] = tested on: NCI-H23
[11] = tested on: HT-29
[12] = tested on: CAKI-1
[13] = tested on: 786-0
[14] = tested on: LOX IMVI
[15] = tested on: SF-268
[16] = tested on: PC-3
[17] = tested on: CCRF-CEM
[18] = tested on: OVCAR-3
[19] = tested on: MOLT-4
[20] = tested on: SF-295

Measured: GI50

Cc1cc(=O)oc2cc(O)c(CN(C)CC(=O)O)cc12
inactive: [1] > 100 µM | [2] > 100 µM | [3] > 100 µM | [4] > 100 µM | [5] > 100 µM | [6] > 100 µM | [7] > 100 µM | [8] > 100 µM | [9] > 100 µM | [10] > 100 µM | [11] > 100 µM | [12] > 100 µM | [13] > 100 µM | [14] > 100 µM | [15] > 100 µM | [16] > 100 µM

Cc1ccc(S[C@@H](C)[C@@](O)(CF)CN(Cc2ccccc2)C(=O)C(F)(F)F)cc1
inactive: [1] 19.2 µM | [2] 19.6 µM | [17] 11 µM | [3] 5.09 µM | [4] 26.9 µM | [6] 11.5 µM | [7] 18.3 µM | [8] 14.9 µM | [9] 20.6 µM | [10] 18.4 µM | [11] 10.3 µM | [12] 25.5 µM | [13] 16.7 µM | [14] 40.3 µM | [15] 33.2 µM | [18] 13.7 µM | [16] 29.1 µM

CC1(C)CCC[C@@]2(C)C1C(=O)[C@@H]1O[C@]1(C)[C@@H]2CO (some centres not stated)
inactive: [1] 17.4 µM | [2] 21 µM | [17] 11.4 µM | [3] 27.3 µM | [4] 38.5 µM | [5] 29.4 µM | [6] 38.6 µM | [7] 20.4 µM | [8] 24.4 µM | [9] 48.8 µM | [10] 16.3 µM | [11] 37.9 µM | [19] 39 µM | [13] 23.2 µM | [14] 19.8 µM | [20] 18.2 µM | [15] 26.2 µM | [18] 18.4 µM | [16] 35.4 µM

COc1ccc2nc(-c3ccccc3)cc(OCC(=O)O)c2c1
inactive: [1] > 100 µM | [2] > 100 µM | [17] > 100 µM | [3] > 100 µM | [4] > 100 µM | [5] > 100 µM | [6] > 100 µM | [7] > 100 µM | [9] > 100 µM | [10] > 100 µM | [11] > 100 µM | [12] > 100 µM | [19] > 100 µM | [13] > 100 µM | [14] > 100 µM | [20] > 100 µM | [15] > 100 µM | [18] > 100 µM | [16] > 100 µM

C=CCn1c(-c2ccc([N+](=O)[O-])cc2)csc1=N
inactive: [1] 18.9 µM | [2] 43.5 µM | [17] 11.1 µM | [3] 69.2 µM | [4] 43.8 µM | [5] 36.6 µM | [6] > 100 µM | [7] > 100 µM | [8] 42.8 µM | [9] 44.3 µM | [10] 30 µM | [11] 32 µM | [12] 69.5 µM | [13] 74.6 µM | [14] 20.3 µM | [20] 18.4 µM | [15] 74.5 µM | [18] 41.4 µM | [16] 48.1 µM

COc1cc(C2c3cc4c(cc3C(O)C3CCC(=O)N23)OCO4)cc(OC)c1OC (configuration not stated)
inactive: [1] 17.1 µM | [2] 3.54 µM | [17] 29.9 µM | [3] 37.2 µM | [4] 51.8 µM | [5] 12.6 µM | [6] 42.6 µM | [7] 34.4 µM | [9] 53 µM | [10] 53 µM | [11] 29.9 µM | [12] 28.2 µM | [19] 32.2 µM | [13] 52.5 µM | [14] 52.4 µM | [20] 6.68 µM | [15] 49.9 µM | [18] 31.6 µM | [16] 54.3 µM

O=C1C[C@H]2[C@@H](O1)[C@@H](O)CN1C(=O)c3ccccc3[C@H]21
inactive: [2] > 100 µM | [17] > 100 µM | [3] > 100 µM | [4] > 100 µM | [5] > 100 µM | [6] > 100 µM | [7] > 100 µM | [8] > 100 µM | [9] > 100 µM | [10] > 100 µM | [11] > 100 µM | [12] > 100 µM | [19] > 100 µM | [13] > 100 µM | [14] > 100 µM | [20] > 100 µM | [15] > 100 µM | [16] > 100 µM

CCCN(CCc1ccc(-c2ccccc2)cc1)CCc1ccc2nn[nH]c2c1
inactive: [2] 8.93 µM | [17] 4.26 µM | [3] 13.7 µM | [4] 9.25 µM | [5] 11.9 µM | [6] 17.3 µM | [7] 6.71 µM | [8] 14.6 µM | [9] 14.7 µM | [10] 12.2 µM | [11] 11.5 µM | [12] 12.6 µM | [19] 3.75 µM | [13] 11.7 µM | [14] 10.6 µM | [20] 12 µM | [15] 19.2 µM | [18] 12.5 µM | [16] 9.44 µM

Oc1ccc(-c2nn3c(CCCCCCCCc4nnc5sc(-c6ccc(O)cc6)nn45)nnc3s2)cc1
inactive: [2] > 100 µM | [17] > 100 µM | [3] > 100 µM | [4] > 100 µM | [5] > 100 µM | [6] > 100 µM | [7] > 100 µM | [8] > 100 µM | [9] > 100 µM | [10] > 100 µM | [11] > 100 µM | [12] > 100 µM | [19] 95.7 µM | [13] > 100 µM | [14] > 100 µM | [20] > 100 µM | [15] > 100 µM | [18] > 100 µM | [16] > 100 µM

C=C(C)C(O)C(O)c1c(OC)ccc2ccc(=O)oc12 (configuration not stated)
inactive: [1] > 100 µM | [2] > 100 µM | [17] > 100 µM | [3] > 100 µM | [4] > 100 µM | [5] > 100 µM | [6] > 100 µM | [7] > 100 µM | [8] > 100 µM | [9] > 100 µM | [10] > 100 µM | [11] > 100 µM | [12] > 100 µM | [19] > 100 µM | [13] > 100 µM | [20] > 100 µM | [15] > 100 µM | [18] > 100 µM | [16] > 100 µM

Cc1ncc([N+](=O)[O-])n1CCNC(=O)Cn1ccnc1[N+](=O)[O-]
inactive: [1] > 100 µM | [2] > 100 µM | [17] > 100 µM | [3] > 100 µM | [4] > 100 µM | [5] > 100 µM | [6] > 100 µM | [7] > 100 µM | [9] > 100 µM | [10] > 100 µM | [11] > 100 µM | [12] > 100 µM | [19] > 100 µM | [13] > 100 µM | [20] > 100 µM | [15] > 100 µM | [18] > 100 µM | [16] > 100 µM
